# Reference: PubChem BioAssay AID2305 (GlaxoSmithKline (GSK), 2010)
# Tested on: P. falciparum 3D7 growth, pLDH absorbance
# Experiment: blood-stage malaria parasite growth potency – strain 3D7, dose response (AID 2305)
row,Structure (SMILES),IC50 [nM]
1,CC(C)(C)C(=O)Nc1ccc(N2CCN(C(c3ccccc3)c3ccccc3)CC2)c(Cl)c1,660
2,CCC[C@@H]([C@@H](CC1CCCCC1)C(=O)N[C@@H](CCCCNS(C)(=O)=O)C(=O)Nc1nccs1)N(O)C=O,80
3,CC(C)NCc1ccc(-c2cccc(NC(=O)c3ccc(F)cc3)c2)cc1,880
4,Cc1cc(=O)c(-c2ccc(S(=O)(=O)c3ccc(Cl)cc3)cc2)c(C)[nH]1,880
5,COc1ccc2ncc(C)c(CCN3CCC(NCc4ccc5c(n4)NC(=O)CS5)CC3)c2c1,550
6,COc1ccc(-c2csc3ncnc(Cl)c23)cc1OC,770
7,O=c1ccc(-c2nc3cc(Cl)c(Cl)cc3n2Cc2ccc(Cl)cc2Cl)c[nH]1,1110
8,O=C(NC1CCCCC1)N(Cc1cccc(-c2cccc(CNC3CCCC3)c2)c1)C1CCN(Cc2ccccc2)CC1,740
9,O=C1C2=C(Nc3ccccc3SC2c2cccs2)c2ccccc21 (stereo not given),230
10,COc1ccc(CCc2ccc(-c3c(C)[nH]c(C)c(Cl)c3=O)cc2)cc1,20
11,CC(=O)Nc1ccc(CNCCc2ccc(NC(=O)c3cc(Cl)cc(Cl)c3)cc2)cc1,680
12,CCCCCSc1cc(O)c(C(CNC)C(C)C)cc1OC (stereo not given),160
13,COc1ccc(-c2cccc(NC(=O)c3ccc(C#N)cc3)c2)cc1CN1CCCN(C)CC1,760
14,CC(C)(C)CN1C(=O)C(c2ccccc2)(c2ccccc2)N=C1N,520
15,Cc1ccc(OCC2CCN(c3ncc(C(=O)NCCCN4CCCC4=O)cc3Cl)CC2)cc1,1260
16,Cc1[nH]c2ccccc2c1C(=O)CSc1nn(-c2ccccc2)c(=S)s1,700
17,O=C(NC1CCC(CN2CCC(c3c[nH]c4ccccc34)CC2)CC1)c1ccc(-c2cc(C(F)(F)F)ccc2Cl)o1 (stereo not given),710
18,CN1CCC(N2CCN(Cc3ccc(-c4cccc(-c5nc6ccccc6[nH]5)c4)cc3)CC2)CC1,140
19,CNC(=O)CNC(=O)COc1cccc2ccccc12,230
20,Cc1cc(C)cc(OCC(O)CN(CCN2CCOCC2)C(=O)Nc2ccc(Br)cc2)c1 (stereo not given),1030
21,CC1CN(Cc2cccc(F)c2)CCN1c1ccc(NC(=O)c2cccs2)cc1 (stereo not given),450
22,COc1ccc2c(-c3ccccc3)noc2c1,240
23,CCN(CC)C(=O)C1CCCN(C(=O)Nc2cc(C(F)(F)F)cc(C(F)(F)F)c2)C1 (stereo not given),1000
24,COc1nc2c(CCN3CCC(NCc4ccc5c(c4)NCCO5)CC3)c(Cl)cnc2cc1F,180

row,Structure (SMILES),IC50 [nM]
1,FC(F)(F)c1ccc2c(NN=Cc3cccc(Cl)c3)ccnc2c1,840
2,CC(C)(C)C(Cn1ccnc1)NCc1cn[nH]c1-c1ccc(-c2ccccc2)cc1 (stereo not given),1060
3,COc1ccccc1CCC(C)(C)NC(=O)CC(CCc1ccccc1)Nc1ccc(C#N)c2ccccc12 (stereo not given),920
4,CCCCNc1nc(NCCCC)c2c(C)c(Cc3ccccc3)c(NCCCC)nc2n1,890
5,COc1cc(NC(=O)/C=C/c2cccc3ccoc23)ccc1OCCN(C(C)C)C(C)C,1040
6,CCCCCN1CCCC1CNS(=O)(=O)c1ccc(C(=O)Nc2ccc(C(F)(F)F)cc2)cc1 (stereo not given),840
7,O=C(NC1CCCCC1)N(CCCn1ccnc1)Cc1csc(-c2ccc(CNCc3ccccc3)cc2)n1,840
8,CS(=O)(=O)c1ccc(-c2cnc(N)c(-c3ccc(O)cc3)c2)cc1,1360
9,CC(C)Cn1cc(C2CCN(CCN3CCC(CNC(=O)c4ccc(NC(=O)c5ccc(Cl)cc5)cc4)CC3)CC2)c2ccccc21,250
10,Cc1cc(OCCCN=C(N)c2ccc3ccccc3c2)c(C(C)C)cc1Cl,970
11,O=C(OCc1ccccc1)N1CCc2c([nH]c3ccccc23)C1CCC(F)(F)F (stereo not given),420
12,Cc1cccc2[nH]c(-c3ccc(-c4ccc(CN5CCC(CO)CC5)cc4)s3)nc12,810
13,COc1ccc(Nc2nc(NCc3ccco3)c3ccccc3n2)cc1,740
14,CSc1nnc2n(Cc3ccccc3)c(=O)c3c(n12)-c1ccccc1CC31CCCCC1,970
15,Cc1cc(C2CCN(CCCCNC(=O)c3ccc(NC(=O)c4ccc(Cl)cc4)cc3)CC2)c(C)cc1OCc1nccn1C,830
16,CNC(=O)c1cc(S(=O)(=O)N2CCN(c3ccccn3)CC2)cs1,670
17,Oc1ccc(CCNc2nc(NCCCOc3ccccc3-c3ccc(C(F)(F)F)cc3)nc(N3CCNCC3)n2)cc1,890
18,CN(Cc1ccc(NC(=O)NC2CCN(C(=O)/C=C/c3ccc(Cl)c(Cl)c3)CC2)cc1)C1CCOCC1,880
19,CC=Cc1cc(Cc2cnc(N)nc2N)cc(CCC)c1OC,780
20,COc1ccc2nc(C)cc(NN=Cc3cccc(Cl)c3)c2c1,630
21,Nc1cccc(CNCc2cccc(-c3ccc(-c4nc5ccc(C(F)(F)F)cc5[nH]4)cc3)c2)c1,360
22,COc1ccc(Oc2ccc(Nc3ccnc4ccc(C(F)(F)F)cc34)cc2)cc1OC,1060
23,COc1ccc(Nc2nc(N3CCCC3)c3ccccc3n2)cc1,750
24,CC(=O)Nc1cc(C(=O)Nc2cccc(-c3cccc(-c4nc5ccc(C(F)(F)F)cc5[nH]4)c3)c2)ccc1C,220

row,Structure (SMILES),IC50 [nM]
1,Cn1nc(C(F)(F)F)c(-c2ccc(Br)cc2)c1NC(=O)Cc1ccccc1F,160
2,CNC(=O)C1Cc2c([nH]c3cc(Br)ccc23)C2(CCN(CCc3ccccc3)CC2)N1 (stereo not given),720
3,O=C(Nc1cccc(CN2CCCN(Cc3ncc[nH]3)CC2)c1)c1ccc(Cl)c(Cl)c1,800
4,O=C(/C=C/c1ccc(Cl)c(Cl)c1)NCCCCCN1CCC(NC(=S)Nc2ccc(Cl)cc2Cl)CC1,740
5,CCN(CC)S(=O)(=O)c1ccc(C(C)NC(=O)c2ccccc2COc2ccccc2)cc1 (stereo not given),330
6,CC(=O)N(C)c1cccc(CNc2cc(C)nc(Nc3ccc(C)cc3)n2)c1,1000
7,O=C(NC1CC1)c1cnc(N2CCC(c3ccccc3)CC2)c(Cl)c1,850
8,Cc1cc(N[C@@H](Cc2ccccc2)C(=O)NCCc2ccccc2)nc(NCCc2ccc(F)cc2)n1,660
9,COc1ccc(Cl)cc1N1CCN(CCCNC(=O)c2ccc(-c3nc4ccc(C(F)(F)F)cc4[nH]3)c(C)c2)CC1,760
10,CCC[C@@H]([C@@H](CC(C)C)C(=O)N[C@@H](CCCCNC(=O)c1ccccn1)C(=O)Nc1nccs1)N(O)C=O,50
11,O=C(CCc1cnc[nH]1)Nc1cccc(-c2ccc(-c3nc4ccccc4[nH]3)s2)c1,760
12,N=C(N)c1cc(Cl)cc(NC(=O)Nc2cc(Cl)cc(C(=N)N)c2)c1,720
13,N#Cc1ccc(-n2cc(C(=O)Nc3ccc4c(c3)CCN(C3CCC3)CC4)c(C(F)(F)F)n2)cc1,290
14,COc1ccc(CN2CCC(NCc3ccc(C(F)(F)F)cc3)CC2)cc1,920
15,Cc1cccc2[nH]c(-c3ccc(-c4ccc(NC(=O)N[C@@H]5C[C@H]5c5ccccc5)cc4)cc3)nc12,880
16,Cn1nc(-c2ccc(S(=O)(=O)N3CCC(CCN4CCC(c5c[nH]c6ccccc56)CC4)CC3)s2)cc1C(F)(F)F,810
17,Cc1[nH]c(C)c(-c2ccc(Oc3cc(Cl)cc(Cl)c3)cc2)c(=O)c1Cl,520
18,CCc1cn(CCCOC)c2ccc(C(=O)N[C@@H](Cc3ccccc3)[C@H](O)CNCc3cccc(C(F)(F)F)c3)cc12,190
19,COc1c(C2CCN(CCN3CCC(NC(=O)c4ccc(-c5ccc(C(F)(F)F)cc5)cc4)CC3)CC2)ccc2c1CCCC2,1360
20,Fc1ccc2nc(-c3cccc(-c4ccc(CNCC5CCCO5)cc4)c3)[nH]c2c1 (stereo not given),540
21,Cc1[nH]c2ccccc2c(=O)c1[N+](=O)[O-],1110
22,O=C(Nc1ccc(C(F)(F)F)cc1)c1ccc(S(=O)(=O)NC2CCN(CC3CCCCC3)C2)cc1 (stereo not given),720
